Measurements from ChEMBL document CHEMBL1147704, “Design and synthesis of 7H-pyrrolo[2,3-d]pyrimidines as focal adhesion kinase inhibitors. Part 2” (Bioorg Med Chem Lett, 2006).

Biological target: Focal adhesion kinase 1 (Homo sapiens, UniProt Q05397)
Sequence (Q05397 whole entry): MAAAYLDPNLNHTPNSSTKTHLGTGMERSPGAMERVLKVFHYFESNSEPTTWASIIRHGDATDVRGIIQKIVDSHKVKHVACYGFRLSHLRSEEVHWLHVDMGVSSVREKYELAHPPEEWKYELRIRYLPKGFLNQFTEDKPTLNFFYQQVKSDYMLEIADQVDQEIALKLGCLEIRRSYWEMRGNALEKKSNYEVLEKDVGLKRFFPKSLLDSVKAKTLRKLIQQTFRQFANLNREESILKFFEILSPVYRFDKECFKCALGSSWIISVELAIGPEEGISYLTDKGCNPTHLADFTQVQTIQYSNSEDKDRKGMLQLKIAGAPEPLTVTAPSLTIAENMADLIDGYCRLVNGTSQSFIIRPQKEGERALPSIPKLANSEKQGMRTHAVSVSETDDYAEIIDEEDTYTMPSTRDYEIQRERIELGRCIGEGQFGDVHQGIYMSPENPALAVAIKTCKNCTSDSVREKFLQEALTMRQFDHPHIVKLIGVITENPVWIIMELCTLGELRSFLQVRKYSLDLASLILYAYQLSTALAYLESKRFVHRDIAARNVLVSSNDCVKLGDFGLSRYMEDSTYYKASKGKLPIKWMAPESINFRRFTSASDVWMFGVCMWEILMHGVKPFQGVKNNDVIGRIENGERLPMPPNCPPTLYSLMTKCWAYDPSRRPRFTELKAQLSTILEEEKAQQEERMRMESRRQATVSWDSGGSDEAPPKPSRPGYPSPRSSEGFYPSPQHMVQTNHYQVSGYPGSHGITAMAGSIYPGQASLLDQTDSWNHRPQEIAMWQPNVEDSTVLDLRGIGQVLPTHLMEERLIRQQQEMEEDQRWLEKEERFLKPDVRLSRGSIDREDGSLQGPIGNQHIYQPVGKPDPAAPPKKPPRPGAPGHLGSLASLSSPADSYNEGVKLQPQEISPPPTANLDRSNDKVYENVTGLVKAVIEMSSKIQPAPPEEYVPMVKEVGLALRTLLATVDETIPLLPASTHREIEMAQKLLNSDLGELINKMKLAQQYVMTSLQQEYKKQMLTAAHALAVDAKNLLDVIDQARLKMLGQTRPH

Row | Compound | IC50
1 | COc1cc(Nc2ncc3ccn(-c4ccccn4)c3n2)cc(OC)c1OC | 212 nM
2 | COc1cc(Nc2ncc3ccn(-c4cccc(CCC(=O)O)n4)c3n2)cc(OC)c1OC | 4 nM
